Results from the supplement of paper PMC11451515.

Test system: SEM cells
Experiment: cell viability relative to DMSO control; higher = less cytotoxic
Details: 48 h
Procedure, shortened: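 Viability is a per-plate percentage relative to DMSO wells, with cell-free wells as background. CellTiter-Glo One luminescence was read after 48 h at 37°C on 1536-well plates (5 μl) of NOMO1 or SEM (500 cells/well) or P12-Ichikawa (1000 cells/well) leukemia cells. The cells had been adapted for at least four passages in each medium and pin-dosed with library compounds in DMSO from 47 μM to 0.79 nM in 11 threefold steps.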

[1] = HPLM + 10% dialyzed FBS, 0.000781 µM
[2] = HPLM + 10% dialyzed FBS, 0.00234 µM
[3] = HPLM + 10% dialyzed FBS, 0.00702 µM
[4] = HPLM + 10% dialyzed FBS, 0.0211 µM
[5] = HPLM + 10% dialyzed FBS, 0.0632 µM
[6] = HPLM + 10% dialyzed FBS, 0.19 µM
[7] = HPLM + 10% dialyzed FBS, 0.569 µM
[8] = HPLM + 10% dialyzed FBS, 1.71 µM
[9] = HPLM + 10% dialyzed FBS, 5.12 µM
[10] = HPLM + 10% dialyzed FBS, 15.4 µM
[11] = HPLM + 10% dialyzed FBS, 46.1 µM
[12] = RPMI 5 mM glucose + 10% FBS, 0.000781 µM
[13] = RPMI 5 mM glucose + 10% FBS, 0.00234 µM
[14] = RPMI 5 mM glucose + 10% FBS, 0.00702 µM
[15] = RPMI 5 mM glucose + 10% FBS, 0.0211 µM
[16] = RPMI 5 mM glucose + 10% FBS, 0.0632 µM
[17] = RPMI 5 mM glucose + 10% FBS, 0.19 µM
[18] = RPMI 5 mM glucose + 10% FBS, 0.569 µM
[19] = RPMI 5 mM glucose + 10% FBS, 1.71 µM
[20] = RPMI 5 mM glucose + 10% FBS, 5.12 µM
[21] = RPMI 5 mM glucose + 10% FBS, 15.4 µM
[22] = RPMI 5 mM glucose + 10% FBS, 46.1 µM
[23] = RPMI 5 mM glucose + 10% dialyzed FBS, 0.000781 µM
[24] = RPMI 5 mM glucose + 10% dialyzed FBS, 0.00234 µM
[25] = RPMI 5 mM glucose + 10% dialyzed FBS, 0.00702 µM
[26] = RPMI 5 mM glucose + 10% dialyzed FBS, 0.0211 µM
[27] = RPMI 5 mM glucose + 10% dialyzed FBS, 0.0632 µM
[28] = RPMI 5 mM glucose + 10% dialyzed FBS, 0.19 µM
[29] = RPMI 5 mM glucose + 10% dialyzed FBS, 0.569 µM
[30] = RPMI 5 mM glucose + 10% dialyzed FBS, 1.71 µM
[31] = RPMI 5 mM glucose + 10% dialyzed FBS, 5.12 µM
[32] = RPMI 5 mM glucose + 10% dialyzed FBS, 15.4 µM
[33] = RPMI 5 mM glucose + 10% dialyzed FBS, 46.1 µM

| Compound | cell viability [1] [%] | cell viability [2] [%] | cell viability [3] [%] | cell viability [4] [%] | cell viability [5] [%] | cell viability [6] [%] | cell viability [7] [%] | cell viability [8] [%] | cell viability [9] [%] | cell viability [10] [%] | cell viability [11] [%] | cell viability [12] [%] | cell viability [13] [%] | cell viability [14] [%] | cell viability [15] [%] | cell viability [16] [%] | cell viability [17] [%] | cell viability [18] [%] | cell viability [19] [%] | cell viability [20] [%] | cell viability [21] [%] | cell viability [22] [%] | cell viability [23] [%] | cell viability [24] [%] | cell viability [25] [%] | cell viability [26] [%] | cell viability [27] [%] | cell viability [28] [%] | cell viability [29] [%] | cell viability [30] [%] | cell viability [31] [%] | cell viability [32] [%] | cell viability [33] [%] |
| --- | --- | --- | --- | --- | --- | --- | --- | --- | --- | --- | --- | --- | --- | --- | --- | --- | --- | --- | --- | --- | --- | --- | --- | --- | --- | --- | --- | --- | --- | --- | --- | --- | --- |
| COCC1(CO)C(=O)C2CCN1CC2 (centres undefined) | 76.2 | 81.7 | 112 | 93.8 | 96.3 | 104 | 4.05 | 73.6 | 87.1 | 71 | 10.3 | 102 | 105 | 137 | 134 | 137 | 144 | 3.64 | 111 | 99.3 | 77.2 | 5.79 | 70.2 | 85.2 | 118 | 105 | 124 | 116 | 3.95 | 90.6 | 103 | 61.8 | 16.9 |
| CN1CCN(C2=Nc3cc(Cl)ccc3Nc3ccccc32)CC1 | 85.6 | 93.8 | 108 | 107 | 83.2 | 111 | 109 | 121 | 113 | 106 | 25.6 | 93 | 96.1 | 107 | 96.1 | 68.9 | 92.9 | 103 | 110 | 109 | 112 | 20.6 | 94.3 | 116 | 104 | 83.1 | 83.5 | 118 | 112 | 123 | 110 | 92 | 22.5 |
| C[C@H](NC(=O)c1sccc1OCc1ccc(Cl)cc1)c1ccccc1 | 98.8 | 94.4 | 82.9 | 88.2 | 94.8 | 83.4 | 91.1 | 92.5 | 69.5 | 80.1 | 51 | 96.9 | 90.9 | 92.5 | 106 | 112 | 95.6 | 85.1 | 112 | 73.3 | 115 | 20.4 | 107 | 97.3 | 94.7 | 94.1 | 101 | 101 | 97.9 | 101 | 70.1 | 99.6 | 59.3 |
